Measurements: US10010516B2, “Method for regulating retinal endothelial cell viability” (The University of Tennessee Research Foundation, priority 2012, dated 2018)
Entries after “also recorded” stand apart in the source; their conditions may differ.

Legend:
[1] = test system: p53; experiment: Immunoblot of phosphorylated and total p53 in RECs; assay type: cell-based, human
[2] = test system: paxillin; experiment: Immunoblot of paxillin (Y118) phosphorylation in irradiated RECs; assay type: cell-based, human; settings: irradiated RECs 30 Gy, 24 hours, P<0.05
[3] = test system: Y79 retinoblastoma cells; experiment: Cell death ELISA in Y79 retinoblastoma cells; assay type: cell-based, human; settings: melphalan 0.8, 1 or 4 μg/mL tested
[4] = test system: RECs
[5] = test system: RECs; settings: melphalan 4 μg/mL; cited from earlier work
[6] = test system: NF-κB; experiment: Western blot of phospho-NF-κB / total NF-κB in RECs; assay type: cell-based, human; settings: melphalan 4 μg/mL
Description: Western blotting. After appropriate treatments and rinsing with cold phosphate-buffered saline, REC were lysed in the lysis buffer containing the protease and phosphatase inhibitors and scraped into the tubes. Equal amounts of protein from the cell or tissue extracts were separated on the pre-cast tris-glycine gel (Invitrogen, Carlsbad, Calif.), blotted onto a nitrocellulose membrane. After blocking in TBST (10 mM Tris-HCl buffer, pH 8.0, 150 mM NaCl, 0.1% Tween 20) and 5% (w/v) BSA, the membrane was treated with NF-κB, Phospho-NF-κB p38^MAPK, Phospho-p38^MAPK antibodies (1:500) followed by incubation with horseradish peroxidase labeled secondary antibodies. The antigen-antibody complexes were detected using chemilluminescence reagent kit (Thermo Scientific).
Transfections. REC were transfected with ICAM-1 siRNA, TNF-α siRNA, or NF-κB siRNA at a final concentration of 20 nM using Lipofectamine™ RNAiMAX Transfection Reagent according to the manufacturer's instructions. After transfection, cells were starved in MVGS-free Medium 131 for 24 hours and used as required.

[7] = test system: ICAM-1; experiment: ICAM-1 ELISA / Western blot in RECs treated with melphalan; assay type: cell-based, human; settings: TNF-α siRNA or etanercept + melphalan

## OCc1ccc(-c2ccc(-c3ccc(CO)s3)o2)s1 [RITA]
[1]; RITA 10 μM for four hours vs untreated RECs, P<0.05
  p53 accumulation: significantly enhanced

## Oc1ccc(-c2nc(-c3ccncc3)c(-c3ccc(F)cc3)[nH]2)cc1 [SB202190]
[1]; concomitant treatment with RITA, P>0.05
  effect on RITA-induced p53 accumulation: did not significantly alter
[2]
  phosphorylation of paxillin at Y118: significantly reduced

## N[C@@H](Cc1ccc(N(CCCl)CCCl)cc1)C(=O)O [melphalan]
[3]
  apoptosis of Y79 retinoblastoma cells: 4 μg/mL produced maximal apoptosis and best induces apoptosis at 4 μg/mL
[4]; melphalan 4 μg/mL, 24 hours
  DNA fragmentation in RECs: did increase DNA fragmentation
[5]
  increase in REC death: greater than 6 fold
[6]
  induction of NF-κB phosphorylation: time-dependent
  time of maximum increase in NF-κB Ser536 phosphorylation: 30 min

## etanercept
[4]; etanercept + melphalan
  REC apoptosis after melphalan treatment (etanercept): did not reach statistical significance
[7]
  melphalan-induced ICAM-1 levels with TNF-α inhibition: neither TNF-α siRNA nor etanercept could reduce ICAM-1 levels; also recorded: Neither TNFα siRNA nor etanercept reduced ICAM-1 levels
